Results reported in ChEMBL document CHEMBL1149819, “Synthesis and in vivo anti-mutagenic activity of novel melatonin derivatives” (2008).

What was measured:
Settings in all cases: route intragastric
[1] = tested on: Mus musculus; assay: Antimutagenic activity in Albino mouse brain assessed as DNA level per gram of tissue at 10 mg/kg administered intragastrically for 1 week; assay type: functional
[2] = tested on: Mus musculus; assay: Antimutagenic activity in Albino mouse liver assessed as RNA level per gram of tissue at 10 mg/kg administered intragastrically for 1 week; assay type: functional
[3] = tested on: Mus musculus; assay: Antimutagenic activity against cyclophosphamide-induced mutagenicity in Albino mouse liver assessed as RNA level per gram of tissue at 10 mg/kg administered intragastrically for 1 week; assay type: functional
[4] = tested on: Mus musculus; assay: Antimutagenic activity against cyclophosphamide-induced mutagenicity in mouse kidney assessed as protein level per gram of tissue at 10 mg/kg administered intragastrically for 1 week; assay type: functional
[5] = tested on: Mus musculus; assay: Antimutagenic activity against cyclophosphamide-induced mutagenicity in mouse brain assessed as cholinesterase activity per microgram of tissue at 10 mg/kg administered intragastrically for 1 week; assay type: functional
[6] = tested on: Mus musculus; assay: Antimutagenic activity against cyclophosphamide-induced mutagenicity in mouse testes assessed as protein level per gram of tissue at 10 mg/kg administered intragastrically for 1 week; assay type: functional, Testis
[7] = tested on: Mus musculus; assay: Antimutagenic activity in Albino mouse kidney assessed as RNA level per gram of tissue at 10 mg/kg administered intragastrically for 1 week; assay type: functional
[8] = tested on: Mus musculus; assay: Antimutagenic activity in mouse brain assessed as cholinesterase activity per microgram of tissue at 10 mg/kg administered intragastrically for 1 week; assay type: functional
[9] = tested on: Mus musculus; assay: Antimutagenic activity in mouse brain assessed as protein level per gram of tissue at 10 mg/kg administered intragastrically for 1 week; assay type: functional
[10] = tested on: Mus musculus; assay: Antimutagenic activity in mouse kidney assessed as protein level per gram of tissue at 10 mg/kg administered intragastrically for 1 week; assay type: functional
[11] = tested on: Mus musculus; assay: Antimutagenic activity against cyclophosphamide-induced mutagenicity in Albino mouse testes assessed as DNA level per gram of tissue at 10 mg/kg administered intragastrically for 1 week; assay type: functional, Testis
[12] = tested on: Mus musculus; assay: Antimutagenic activity in Albino mouse liver assessed as DNA level per gram of tissue at 10 mg/kg administered intragastrically for 1 week; assay type: functional
[13] = tested on: Mus musculus; assay: Antimutagenic activity in Albino mouse brain assessed as RNA level per gram of tissue at 10 mg/kg administered intragastrically for 1 week; assay type: functional
[14] = tested on: Mus musculus; assay: Antimutagenic activity against cyclophosphamide-induced mutagenicity in mouse brain assessed as protein level per gram of tissue at 10 mg/kg administered intragastrically for 1 week; assay type: functional
[15] = tested on: Mus musculus; assay: Antimutagenic against cyclophosphamide-induced mutagenicity in Albino mouse liver assessed as DNA level per gram of tissue at 10 mg/kg administered intragastrically for 1 week; assay type: functional
[16] = tested on: Mus musculus; assay: Inhibition of cyclophosphamide-induced increase in micronuclei/polychromatic erythrocytes count in mouse at 10 mg/kg administered intragastrically for 1 week by micronuclei assay; assay type: functional; design: scale not given: the % may be the effect or the level left
[17] = tested on: Mus musculus; assay: Antimutagenic activity in mouse liver assessed as protein level per gram of tissue at 10 mg/kg administered intragastrically for 1 week; assay type: functional
[18] = tested on: Mus musculus; assay: Antimutagenic activity in mouse brain assessed as peroxidase activity per microgram of tissue at 10 mg/kg administered intragastrically for 1 week; assay type: functional
[19] = tested on: Mus musculus; assay: Antimutagenic activity against cyclophosphamide-induced mutagenicity in Albino mouse brain assessed as RNA level per gram of tissue at 10 mg/kg administered intragastrically for 1 week; assay type: functional
[20] = tested on: Mus musculus; assay: Antimutagenic activity against cyclophosphamide-induced mutagenicity in Albino mouse kidney assessed as RNA level per gram of tissue at 10 mg/kg administered intragastrically for 1 week; assay type: functional
[21] = tested on: Mus musculus; assay: Antimutagenic activity in Albino mouse kidney assessed as DNA level per gram of tissue at 10 mg/kg administered intragastrically for 1 week; assay type: functional
[22] = tested on: Mus musculus; assay: Antimutagenic activity against cyclophosphamide-induced mutagenicity in mouse brain assessed as peroxidase activity per microgram of tissue at 10 mg/kg administered intragastrically for 1 week; assay type: functional
[23] = tested on: Mus musculus; assay: Antimutagenic activity in Albino mouse testes assessed as DNA level per gram of tissue at 10 mg/kg administered intragastrically for 1 week; assay type: functional, Testis
[24] = tested on: Mus musculus; assay: Antimutagenic activity against cyclophosphamide-induced mutagenicity in Albino mouse brain assessed as DNA level per gram of tissue at 10 mg/kg administered intragastrically for 1 week; assay type: functional
[25] = tested on: Mus musculus; assay: Antimutagenic activity against cyclophosphamide-induced mutagenicity in Albino mouse kidney assessed as DNA level per gram of tissue at 10 mg/kg administered intragastrically for 1 week; assay type: functional
[26] = tested on: Mus musculus; assay: Antimutagenic activity in Albino mouse testes assessed as RNA level per gram of tissue at 10 mg/kg administered intragastrically for 1 week; assay type: functional, Testis
[27] = tested on: Mus musculus; assay: Antimutagenic activity against cyclophosphamide-induced mutagenicity in Albino mouse testes assessed as RNA level per gram of tissue at 10 mg/kg administered intragastrically for 1 week; assay type: functional, Testis
[28] = tested on: Mus musculus; assay: Antimutagenic activity against cyclophosphamide-induced mutagenicity in mouse liver assessed as protein level per gram of tissue at 10 mg/kg administered intragastrically for 1 week; assay type: functional

COc1ccc2[nH]cc(CCNC(C)=O)c2c1 [MELATONIN]
Activity [1]: 0.32 mg | Activity [2]: 0.44 mg | Activity [3]: 0.28 mg | Activity [4]: 4.42 g | Activity [5]: 2.63 U | Activity [6]: 2.96 g | Activity [7]: 0.38 mg | Activity [8]: 3.13 U | Activity [9]: 2.48 g | Activity [10]: 6.39 g | Activity [11]: 0.23 mg | Activity [12]: 0.26 mg | Activity [13]: 0.18 mg | Activity [14]: 2.37 g | Activity [15]: 0.23 mg | Activity [16]: 41% | Activity [17]: 8.42 g | Activity [18]: 3.38 U/min | Activity [19]: 0.15 mg | Activity [20]: 0.19 mg | Activity [21]: 0.25 mg | Activity [22]: 2.54 U/min | Activity [23]: 0.26 mg | Activity [24]: 0.21 mg | Activity [25]: 0.24 mg | Activity [26]: 0.34 mg | Activity [27]: 0.17 mg | Activity [28]: 8.42 g
